The results in this text go back to the supplement of paper PMC11208160.
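Also: IS621 bridge recombinase in Escherichia coli cells against a fixed T5 target plasmid.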

This series in a line: recombinant UMI read abundance after kanamycin selection (control-corrected) (log10(CPM+1)); higher = more efficient recombination; extreme values may be limits of the assay; sequences stand for … in AGTGCAGAGAAAATCGGCCAGTTTTCTCTGCCTGCAGTCCGCATGCCGTGGGACCCCTTGGGTTCTAACCTGTTGCCTAGATTTATGCAGCGGACTGCCTTTCTCCCAAAGTGATAAACCGG…AGGTTGGTTTCACT; site = the 11-nt donor. The procedure:
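Pooled E. coli donor-specificity screen for the IS621 bridge recombinase. Each library member carries a reprogrammed 11-nt donor and a full-length LE bridge RNA expressed in cis from the natural promoter, with a paired donor-binding loop (8-nt LDG + 4-nt RDG) and a target-binding loop fixed to T5. It is co-electroporated with a T5 target plasmid; recombinase is induced with 0.07 mM IPTG and recombinants are selected on kanamycin. UMIs are counted as CPM, averaged over two biological replicates and corrected by the unselected control. Molecule = full bridge RNA written as DNA, built from the T5 scaffold: LDG = donor specificity nt 1-8, RDG = reverse complement of nt 8-11.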
For the sequence “ACCCAAGCATGGACCGGTTTTCCCGGTAATCCGTATTTGAG (site AGCCAAGCTCT)”, the “recombinant UMI read abundance (log10)” value was 0.021. As for “ACCCAAGCATGGACCGGTTTTCCCGGTAATCCGTATTTGAG (site ATCCAAGCTCT)”, the figure is 0.467. The value for “ACCCACCCATGGACCGGTTTTCCCGGTAATCCGTATTTGAG (site ACCCACCCTCT)” was 0.00795; that for “ACCCTAGCATGGACCGGTTTTCCCGGTAATCCGTATTTGAT (site ACCCTAGCTAT)” was 0.558. On to “ACCCTCTCATGGACCGGTTTTCCCGGTAATCCGTATTTGGG (site ACCCTCTCTCC)”, for which the “recombinant UMI read abundance (log10)” value came to 0.0124. As for “ACCGAGGCATGGACCGGTTTTCCCGGTAATCCGTATTTGGG (site ACCGAGGCTCC)”, the figure is 0.157; as for “ACCGCGGCATGGACCGGTTTTCCCGGTAATCCGTATTTGAT (site ACCGCGGCTAT)”, 1.78; as for “ACCGGATCATGGACCGGTTTTCCCGGTAATCCGTATTTGAG (site ACCGGATCTCT)”, 1.22.

Turning to “ACCGGATCATGGACCGGTTTTCCCGGTAATCCGTATTTGCG (site ACCGGATCTCG)”, the “recombinant UMI read abundance (log10)” value turned out to be 2.56. Turning to “ACCGTAACATGGACCGGTTTTCCCGGTAATCCGTATTTGCA (site ACAGTATCTTG)”, the “recombinant UMI read abundance (log10)” value is 1.49.

Regarding “ACCGTAACATGGACCGGTTTTCCCGGTAATCCGTATTTGCA (site ACCGTAACTTG)”, the “recombinant UMI read abundance (log10)” value was 2.34. Regarding “ACCGTATCATGGACCGGTTTTCCCGGTAATCCGTATTTGGA (site ACAGTATCTTG)”, the “recombinant UMI read abundance (log10)” value was determined as 0.692. The value for “ACCGTATCATGGACCGGTTTTCCCGGTAATCCGTATTTGGA (site ACCGTATCTTC)” was 1.83; that for “ACCTAGACATGGACCGGTTTTCCCGGTAATCCGTATTTGGA (site ACCTAGACTAC)” was 0; that for “ACCTAGACATGGACCGGTTTTCCCGGTAATCCGTATTTGGA (site ACCTAGACTCC)” was 0.0104. On to “ACCTAGACATGGACCGGTTTTCCCGGTAATCCGTATTTGGA (site ACCTAGACTGC)”, for which the “recombinant UMI read abundance (log10)” value was determined as 0. As for “ACCTAGACATGGACCGGTTTTCCCGGTAATCCGTATTTGGA (site ACCTAGACTTC)”, the “recombinant UMI read abundance (log10)” value was found to be 0.725.

With “ACCTAGTCATGGACCGGTTTTCCCGGTAATCCGTATTTGGG (site ACCTAGACTCC)”, the “recombinant UMI read abundance (log10)” value stood at 0. “ACCTAGTCATGGACCGGTTTTCCCGGTAATCCGTATTTGGG (site ACCTAGCCTCC)”: the “recombinant UMI read abundance (log10)” value came out at 0.017. With “ACCTAGTCATGGACCGGTTTTCCCGGTAATCCGTATTTGGG (site ACCTAGGCTCC)”, the “recombinant UMI read abundance (log10)” value was found to be 0.0399. Turning to “ACCTAGTCATGGACCGGTTTTCCCGGTAATCCGTATTTGGG (site ACCTAGTCTCC)”, the “recombinant UMI read abundance (log10)” value was 0.0642. Turning to “ACCTATACATGGACCGGTTTTCCCGGTAATCCGTATTTGAC (site AACTATACTGT)”, the “recombinant UMI read abundance (log10)” value is 0. Turning to “ACCTATACATGGACCGGTTTTCCCGGTAATCCGTATTTGAC (site ACCTATACTGT)”, the “recombinant UMI read abundance (log10)” value came to 1.58. “ACCTATACATGGACCGGTTTTCCCGGTAATCCGTATTTGAC (site AGCTATACTGT)”: the “recombinant UMI read abundance (log10)” value came to 0.0116. Turning to “ACCTATACATGGACCGGTTTTCCCGGTAATCCGTATTTGAC (site ATCTATACTGT)”, the “recombinant UMI read abundance (log10)” value was 0.368.

Turning to “ACCTCGGCATGGACCGGTTTTCCCGGTAATCCGTATTTGTT (site ACCTCGGCTAA)”, the “recombinant UMI read abundance (log10)” value amounted to 0.681.

For the sequence “ACCTGGGCATGGACCGGTTTTCCCGGTAATCCGTATTTGCA (site ACCTGGGCTTG)”, the “recombinant UMI read abundance (log10)” value was 0.909.

For the sequence “ACCTTGACATGGACCGGTTTTCCCGGTAATCCGTATTTGGG (site ACCTAGACTCC)”, the “recombinant UMI read abundance (log10)” value was 0.0118. On to “ACCTTGACATGGACCGGTTTTCCCGGTAATCCGTATTTGGG (site ACCTCGACTCC)”, for which the “recombinant UMI read abundance (log10)” value came to 0.0142. Regarding “ACCTTGACATGGACCGGTTTTCCCGGTAATCCGTATTTGGG (site ACCTGGACTCC)”, the “recombinant UMI read abundance (log10)” value amounted to 0.0127. With “ACCTTGACATGGACCGGTTTTCCCGGTAATCCGTATTTGGG (site ACCTTGACTCC)”, the “recombinant UMI read abundance (log10)” value was 0.0408. With “ACGAAGACATGGACCGGTTTTCCCGGTAATCCGTATTTGCA (site AAGAAGACTTG)”, the “recombinant UMI read abundance (log10)” value turned out to be 2.3. As for “ACGAAGACATGGACCGGTTTTCCCGGTAATCCGTATTTGCA (site ACGAAGACTTG)”, the figure is 2.78; as for “ACGAAGACATGGACCGGTTTTCCCGGTAATCCGTATTTGCA (site AGGAAGACTTG)”, 1.81; as for “ACGAAGACATGGACCGGTTTTCCCGGTAATCCGTATTTGCA (site ATGAAGACTTG)”, 2.04. Take “ACGAAGACATGGACCGGTTTTCCCGGTAATCCGTATTTGCG (site ACGAAGACTCG)”: the “recombinant UMI read abundance (log10)” value turned out to be 2.77.

On to “ACGAAGACATGGACCGGTTTTCCCGGTAATCCGTATTTGCG (site AGGAAGACTTG)”, for which the “recombinant UMI read abundance (log10)” value was 0. The value for “ACGAAGTCATGGACCGGTTTTCCCGGTAATCCGTATTTGGG (site ACGAAGTCTCC)” was 0.574.

“ACGAATTCATGGACCGGTTTTCCCGGTAATCCGTATTTGCG (site ACGAATTCTCG)”: the “recombinant UMI read abundance (log10)” value was 2.06. On to “ACGACTTCATGGACCGGTTTTCCCGGTAATCCGTATTTGTT (site ACGACTTCTAA)”, for which the “recombinant UMI read abundance (log10)” value was 1.23. Regarding “ACGAGAACATGGACCGGTTTTCCCGGTAATCCGTATTTGTT (site ACGAGAACTAA)”, the “recombinant UMI read abundance (log10)” value was determined as 2.8. The value for “ACGCAACCATGGACCGGTTTTCCCGGTAATCCGTATTTGAA (site ACGCAACCTTT)” was 0; that for “ACGCGGACATGGACCGGTTTTCCCGGTAATCCGTATTTGTG (site ACGCGGACTCA)” was 1.74; that for “ACGCGTCCATGGACCGGTTTTCCCGGTAATCCGTATTTGTG (site ACGCGTCCTCA)” was 0.257. As for “ACGCGTGCATGGACCGGTTTTCCCGGTAATCCGTATTTGAC (site ACGCGTGCTGT)”, the “recombinant UMI read abundance (log10)” value worked out at 2.96.

In the case of “ACGCTATCATGGACCGGTTTTCCCGGTAATCCGTATTTGCA (site ACAGTATCTTG)”, the “recombinant UMI read abundance (log10)” value stood at 1.92. On to “ACGCTATCATGGACCGGTTTTCCCGGTAATCCGTATTTGCA (site ACGCTATCTTG)”, for which the “recombinant UMI read abundance (log10)” value came out at 2.75. Consider “ACGGACACATGGACCGGTTTTCCCGGTAATCCGTATTTGGT (site ACGGACACTAC)”, for which the “recombinant UMI read abundance (log10)” value stood at 1.82. In the case of “ACGGCCTCATGGACCGGTTTTCCCGGTAATCCGTATTTGGG (site ACGGCCTCTCC)”, the “recombinant UMI read abundance (log10)” value was 0.0343. As for “ACGGGCGCATGGACCGGTTTTCCCGGTAATCCGTATTTGAG (site ACGGGCGCTCT)”, the figure is 1.15.

Turning to “ACGGTATCATGGACCGGTTTTCCCGGTAATCCGTATTTGCA (site ACAGTATCTTG)”, the “recombinant UMI read abundance (log10)” value stood at 2.96. As for “ACGGTATCATGGACCGGTTTTCCCGGTAATCCGTATTTGCA (site ACCGTATCTTG)”, the figure is 1.92; as for “ACGGTATCATGGACCGGTTTTCCCGGTAATCCGTATTTGCA (site ACGGTATCTTG)”, 3.16; as for “ACGGTATCATGGACCGGTTTTCCCGGTAATCCGTATTTGCA (site ACTGTATCTTG)”, 2.32.

In the case of “ACGGTTTCATGGACCGGTTTTCCCGGTAATCCGTATTTGCA (site ACAGTATCTTG)”, the “recombinant UMI read abundance (log10)” value came out at 2.71. As to “ACGGTTTCATGGACCGGTTTTCCCGGTAATCCGTATTTGCA (site ACGGTTTCTTG)”, the “recombinant UMI read abundance (log10)” value came to 2.34. As for “ACGTCCTCATGGACCGGTTTTCCCGGTAATCCGTATTTGGT (site ACGTCCTCTAC)”, the figure is 1.51.

As for “ACGTGTGCATGGACCGGTTTTCCCGGTAATCCGTATTTGGT (site ACGTGTGCTAC)”, the “recombinant UMI read abundance (log10)” value was 1.99. With “ACTAGAACATGGACCGGTTTTCCCGGTAATCCGTATTTGAG (site AATAGAACTCT)”, the “recombinant UMI read abundance (log10)” value stood at 0.839.

“ACTAGAACATGGACCGGTTTTCCCGGTAATCCGTATTTGAG (site ACAAGAACTCT)”: the “recombinant UMI read abundance (log10)” value is 1.26.

“ACTAGAACATGGACCGGTTTTCCCGGTAATCCGTATTTGAG (site ACCAGAACTCT)”: the “recombinant UMI read abundance (log10)” value is 1.23.

With “ACTAGAACATGGACCGGTTTTCCCGGTAATCCGTATTTGAG (site ACGAGAACTCT)”, the “recombinant UMI read abundance (log10)” value is 0.424. With “ACTAGAACATGGACCGGTTTTCCCGGTAATCCGTATTTGAG (site ACTAAAACTCT)”, the “recombinant UMI read abundance (log10)” value came to 0.908. Turning to “ACTAGAACATGGACCGGTTTTCCCGGTAATCCGTATTTGAG (site ACTACAACTCT)”, the “recombinant UMI read abundance (log10)” value is 0.383.

For “ACTAGAACATGGACCGGTTTTCCCGGTAATCCGTATTTGAG (site ACTAGAACTAT)”, the “recombinant UMI read abundance (log10)” value was 0.
